Laboratory results taken from ChEMBL document CHEMBL1141759, “Steroids from the Antarctic octocoral Anthomastus bathyproctus” (2005).

Assays:
Format in all cases: functional
[1] = system: A549; assay: Cytotoxicity against human A549 cells by SRB assay
[2] = system: HT-29; assay: Cytotoxicity against human HT-29 cells by SRB assay
[3] = system: MDA-MB-231; assay: Cytotoxicity against human MDA-MB-231 cells by SRB assay

Compound COC(=O)C(C)/C=C/[C@@H](C)[C@H]1CC[C@H]2[C@@H]3CCC4=CC(=O)C=C[C@]4(C)[C@H]3CC[C@]12C (stereo partly drawn) has a GI50 [1] of 21.4 µM, a GI50 [2] of 20.2 µM and a GI50 [3] of 22.4 µM.

COC(=O)/C(C)=C/CC[C@@H](C)[C@H]1CC[C@H]2[C@@H]3CCC4=CC(=O)C=C[C@]4(C)[C@H]3CC[C@]12C was tested, and the GI50 [1] was 16.5 µM, the GI50 [2] was 15.3 µM and the GI50 [3] was 21.2 µM.

Compound COC(=O)/C(C)=C/C[C@@H](OC(C)=O)[C@@H](C)[C@H]1CC[C@H]2[C@@H]3CCC4=CC(=O)C=C[C@]4(C)[C@H]3CC[C@]12C has a GI50 [3] of 18.4 µM.

C=C(CC[C@](C)(O)[C@H]1CC[C@H]2[C@@H]3CCC4=CC(=O)C=C[C@]4(C)[C@H]3CC[C@@]21C)C(C)C showed a GI50 [1] of 23.4 µM.
